{
  "source": "paper PMC3012785",
  "about": "(Journal of neurochemistry, 2010)",
  "settings": "rat, in vivo",
  "note": "Ends that are not written are not given here.",
  "data": [
    {"sequence": "RHAYRSMAEWGFLYS [PGD3-4]", "values": [
      {"measurement": "Half-life", "value": 2.45, "unit": "h"}
    ]}
  ]
}
